Measurements as given in patent US20240140949A1, “ANTI-CANCER PHARMACEUTICAL COMPOSITION FOR TARGETING HEAT SHOCK PROTEIN 70, CONTAINING INDOLOQUINAZOLIDINE ALKALOID” (SEOUL NATIONAL UNIVERSITY R & DB FOUNDATION, priority 2021, published 2024).

Legend:
[1] = target: T1, Hsp70 protein (full length, N-terminal domain) (Homo sapiens, UniProt P0DMV8); assay: Drug affinity responsive target stability (DARTS); type: binding; details: up to 10 μM, proteinase K (FIG. 6)
T1 construct: 35 μg of Hsp70 full length, Hsp70 N-terminal, Hsp70 C-terminal proteins were treated with vehicle (DMSO)
T1 sequence (P0DMV8 2-641): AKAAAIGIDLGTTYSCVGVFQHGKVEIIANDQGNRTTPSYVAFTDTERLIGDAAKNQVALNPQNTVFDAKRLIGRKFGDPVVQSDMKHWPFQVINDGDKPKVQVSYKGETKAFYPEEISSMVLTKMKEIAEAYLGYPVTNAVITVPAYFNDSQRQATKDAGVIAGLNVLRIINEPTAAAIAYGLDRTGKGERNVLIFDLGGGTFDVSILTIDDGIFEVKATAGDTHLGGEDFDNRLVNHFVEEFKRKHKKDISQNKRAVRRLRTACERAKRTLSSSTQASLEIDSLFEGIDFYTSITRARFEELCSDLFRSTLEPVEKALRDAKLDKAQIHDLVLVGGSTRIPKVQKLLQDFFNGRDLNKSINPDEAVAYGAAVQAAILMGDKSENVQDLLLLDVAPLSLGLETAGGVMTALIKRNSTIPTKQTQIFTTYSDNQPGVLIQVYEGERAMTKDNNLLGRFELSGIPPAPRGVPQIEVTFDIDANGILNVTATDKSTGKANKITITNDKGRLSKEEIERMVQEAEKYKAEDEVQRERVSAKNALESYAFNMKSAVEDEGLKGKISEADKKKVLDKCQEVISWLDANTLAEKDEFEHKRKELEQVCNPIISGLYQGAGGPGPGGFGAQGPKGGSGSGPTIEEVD
Protocol: 35 μg of Hsp70 full length, Hsp70 N-terminal, Hsp70 C-terminal proteins were treated with vehicle (DMSO) or up to 10 μM of EV507 (final DMSO concentration: 1%) at 4° C. for 30 minutes, followed by a treatment with proteinase K (proteinase K:protein=1:100) at room temperature for 15 minutes. The reaction was terminated by adding a 5×SDS-PAGE sample buffer and boiling at 95° C. for 5 minutes, after which electrophoresis was performed with 8% SDS-PAGE. The proteins were transferred to a PVDF membrane, and the Western blot analysis method described above was performed.

[2] = test system: tumors derived from lung cancer patients; assay: Lung cancer patient-derived tumor xenograft growth in NOD/SCID mice; type: in vivo, mouse; details: 20 mg/kg orally six times a week, vs control group (FIG. 7)
Protocol: H460 cells (5×10^6 cells/spot) or lung cancer patient-derived tumors were implanted into the flank of 6-week-old NOD/SCID mice, or LLC-Luc cells (5×10^5 cells/spot) were implanted into the flank of 8-week-old C57BL/6 mice to form tumors. When the tumor volume reached 50-100 mm^3, the mice were divided into control and experimental groups (with at least 6 mice assigned to each group), and the control group was administered with vehicle (10% DMSO and 40% PEG400 solution prepared in sterile distilled water), while the experimental group was administered with EV507 (20 mg/kg) six times a week orally. The major and minor axes of the tumor were measured, and the tumor size was measured at least 3-4 times a week, and the body weight was measured at least once a week to evaluate the toxicity of the drug. Also, the survival of C57BL/6 mice implanted with LLC-Luc cells was monitored to determine the survival curve. The tumor volume was calculated as (width)^2× length×0.5.

[3] = test system: Hsp70 protein and Hsp70/Hsp90 client proteins (Akt, Src, and MEK); assay: Western blot of Hsp70 and client proteins in lung cancer cells; type: cell-based, human
Description: Human lung cancer cell lines (H1299, H460, A549, H226B, and PC9), breast cancer cell line (MDA-MB-231), liver cancer cell line (Hep3B), kidney cancer cell line (786-0), prostate cancer cell lines (DU145 and PC-3), and mouse lung cancer cell line (Lewis Lung Carcinoma, LLC) were purchased from ATCC (American Type Culture Collection) or obtained from Dr. John V. Heymach of MD Anderson Cancer Center, USA. The human head and neck cancer cell line (UMSCC38) was obtained from Dr. Jeffrey N. Myers (MD Anderson Cancer Center, USA). Human colon cancer cell lines (HCT116 and HT-29) and glioblastoma cell line (U87MG) were obtained from Professor Sang Kook Lee (Seoul National University College of Pharmacy). The human kidney cancer cell line (Caki-1), and gastric cancer cell line (SNU-638) were purchased from the Korean Cell Line Bank. The chemotherapy-resistant cells [paclitaxel-resistant H460 cells (H460/PcR), paclitaxel-resistant H226B cells (H226B/PcR), cisplatin-resistant H1299 cells (H1299/CsR), pemetrexed-resistant H1299 cells (H1299/PmR)] and molecularly targeted anticancer therapy-resistant cells [erlotinib-resistant PC9 cells (PC9/ER)] were constructed by treating the respective anti-cancer drugs for more than three months. H1299, H460, H226B, PC9, Hep3B, 786-0, DU145, PC-3, HCT116, HT-29, SNU-638, chemotherapeutic resistant cells, and molecularly targeted anticancer therapy-resistant cells were cultured in RPMI 1640 media containing 10% fetal bovine serum (FBS) and antibiotics at 37° C. under 5% CO2 conditions, while MDA-MB-231, UMSCC38, U87MG, Caki-1 were cultured in DMEM media containing 10% FBS and antibiotics at 37° C. under 5% CO2 conditions. Cells were passaged 1-2 times per week.
The cells treated with the drug were treated with RIPA lysis buffer [50 mM Tris-HCl (pH 7.4), 150 mM NaCl, 1 mM EDTA, 0.25% sodium deoxycholate, 1% Triton X-100, 100 mM NaF, 5 mM Na3VO4, 1 mM PMSF, 1 μg/mL aprotinin, 1 μg/mL leupeptin, and 1 μg/mL pepstatin], followed by incubation on ice for 10 minutes and centrifugation at 13,000 rpm for 15 minutes to extract proteins. The proteins were quantified by BCA assay and equal amounts of proteins were separated by 8-10% SDS-PAGE. The separated proteins were transferred to a PVDF membrane, and the areas of the membrane not transferred with protein were blocked by incubating the membrane in 5% skim milk solution or 3% BSA solution diluted in TBST at room temperature for 1 hour. The membrane was then incubated in a primary antibody solution diluted 1:1,000 in 3% BSA at 4° C. for more than 12 hours. The primary antibody used was either anti-Hsp70 or anti-actin, with the anti-Hsp70 antibody obtained from Enzo Life Science and the actin antibody obtained from Santa Cruz Biotechnology. After incubation, the membrane was washed for 1 hour while changing TBST several times, and then incubated for 1 hour at room temperature with a secondary antibody (GeneTex) diluted 1:5,000 in 5% skim milk solution. After incubation, the membrane was washed for 1 hour while changing TBST several times, and then treated with an enhanced chemiluminescence (ECL) solution. The expression of Hsp70 or Actin protein was detected using LAS4000.

lung cancer cells = assay: Anchorage-independent (soft agar) colony formation; type: cell-based; details: soft agar (FIG. 20)
Protocol: Before the experiment, a 1% agar solution made with low-melting agar was placed in a 24-well plate and hardened at room temperature to create a bottom agar. The cells were diluted with medium to seed 2×10^3 cells per well in a 24-well plate. Then, it was mixed with a 1% agar solution to create a final 0.4% agar solution, which was then solidified at room temperature in the plate containing the bottom agar. Medium containing the drug was added on top of the cells mixed in the agar and cultured for 1-3 weeks at 37° C. in a 5% CO2 condition, after which the formed colonies were stained with an MTT solution of 250-500 μg/mL and counted. The colony formation inhibitory effect of the drug was calculated by expressing the change in colony numbers in the drug-treated group compared to the vehicle (DMSO) treated control group as a percentage.

## C=CCN1c2ccccc2C(=O)N2CCc3c([nH]c4ccc(O)cc34)C21 (centres unmarked) [EV507]
[1]
  binding to Hsp70 protein, particularly the N-terminal domain: binds
[2]
  tumor growth: significantly inhibited
[3]; H1299, H460, A549, H226B lung cancer cell lines (FIG. 4)
  expression of Hsp70 protein and Hsp70/Hsp90 client proteins (Akt, Src, and MEK): clear reduction
[3]; Western blot (FIG. 21)
  expression of Hsp70 and Src and Akt (client proteins of Hsp70/Hsp90): decrease
Lung cancer cells
  anchorage-independent colony formation: effectively inhibited
